{
  "source": "patent US11001564B2",
  "about": "“Substituted chromane-8-carboxamide compounds and analogues thereof, and methods using same” (priority 2016, dated 2021)",
  "note": "Counter-ions that a name gives are not always drawn.",
  "data": [
    {"test_system": "HBV rcDNA in HepDE19 cells", "assay": "HepDE19 assay with bDNA quantitation of HBV rcDNA", "type": "cell-based, hepatitis B virus (HBV)", "settings": "Hepatitis B virus, HepDE19, 168 h, HepDE19 cells, 7 day incubation, rcDNA by Quantigene 2.0 bDNA assay; read-out: DE-19 bDNA EC50", "description": "(§1) HepDE19 Assay with bDNA Quantitation of HBV rcDNA:\n(§2) HepDE19 cell culture system is a HepG2 (human hepatocarcinoma) derived cell line that supports HBV DNA replication and cccDNA formation in a tetracycline (Tet)-regulated manner and produces HBV rcDNA and a detectable reporter molecule dependent on the production and maintenance of cccDNA (Guo, et al., 2007, J. Virol. 81:12472-12484).\n(§3) HepDE19 (50,000 cells/well) were plated in 96 well collagen-coated tissue-culture treated microtiter plates in DMEM/F12 medium supplemented with 10% fetal bovine serum, 1% penicillin-streptomycin and 1 μg/mL tetracycline and incubated in a humidified incubator at 37° C. and 5% CO2 overnight. Next day, the cells were switched to fresh medium without tetracycline and incubated for 4 hours at 37° C. and 5% CO2. The cells were treated with fresh Tet-free medium with compounds at concentrations starting at 25 μM and a serial, ½ log, 8-point, titration series in duplicate. The final DMSO concentration in the assay was 0.5%. The plates were incubated for 7 days in a humidified incubator at 37° C. and 5% CO2. Following a 7 day-incubation, the level of rcDNA present in the inhibitor-treated wells was measured using a Quantigene 2.0 bDNA assay kit (Affymetrix, Santa Clara, Calif.) with HBV specific custom probe set and manufacturers instructions. Concurrently, the effect of compounds on cell viability was assessed using replicate plates, plated at a density of 5,000 cells/well and incubated for 4 days, to determine the ATP content as a measure of cell viability using the cell-titer glo reagent (CTG; Promega Corporation, Madison, Wis.) as per manufacturer's instructions. The plates were read using a Victor luminescence plate reader (PerkinElmer Model 1420 Multilabel counter) and the relative luminescence units (RLU) data generated from each well was calculated as % inhibition of the untreated control wells and analyzed using XL-Fit module in Microsoft Excel to determine EC50 and EC90 (bDNA) and CC50 (CTG) values using a 4-parameter curve fitting algorithm.\n(§4) Representative compounds of the invention were tested for their ability to inhibit formation of relaxed circular DNA (rcDNA) in a HepDE19 assay, as described elsewhere herein.", "units": {"EC50": "µM"}, "values": [
      {"smiles": "COC(=O)N[C@H]1CCOc2c(C(=O)NCc3cccc(F)c3)cccc21", "note": "[Compound 36, methyl (S)-(8-((3-fluorobenzyl)carbamoyl)chroman-4-yl)carbamate]", "EC50": 22},
      {"smiles": "COC(=O)N[C@H]1CCOc2c(C(=O)Nc3cccc(Cl)c3)cccc21", "note": "[Compound 37, Methyl (S)-(8-((3-chlorophenyl)carbamoyl)chroman-4-yl)carbamate]", "EC50": 2.8},
      {"smiles": "COC(=O)N[C@@H]1CCOc2c(C(=O)Nc3ccc(F)c(F)c3)ccc(F)c21", "note": "[Compound 39, methyl (R)-(8-((3,4-difluorophenyl)carbamoyl)-5-fluorochroman-4-yl)carbamate]", "EC50": 8.5},
      {"smiles": "CNC(=O)N[C@@H]1CCOc2c(C(=O)Nc3ccc(F)c(F)c3)ccc(F)c21", "note": "[Compound 41, (R)-N-(3,4-difluorophenyl)-5-fluoro-4-(3-methylureido) chromane-8-carboxamide]", "EC50": 23},
      {"smiles": "O=C(Nc1ccc(F)c(F)c1)c1cccc2c1OCC[C@@H]2Nc1ncccn1", "note": "[Compound 42, (S)-N-(3,4-difluorophenyl)-4-(pyrimidin-2-ylamino) chromane-8-carboxamide]", "EC50": 3.4},
      {"smiles": "COC(=O)N[C@H]1CCOc2c(C(=O)Nc3cccc(C#N)c3)cccc21", "note": "[Compound 43, Methyl (S)-(8-((3-cyanophenyl)carbamoyl)chroman-4-yl)carbamate]", "EC50": 8.7},
      {"smiles": "COC(=O)N[C@H]1CCOc2c(C(=O)Nc3ccc(F)c(C(F)(F)F)c3)cccc21", "note": "[Compound 44, Methyl (S)-(8-((4-fluoro-3-(trifluoromethyl)phenyl)carbamoyl)chroman-4-yl)carbamate]", "EC50": 3.5},
      {"smiles": "COC(=O)N[C@H]1CCOc2c(C(=O)Nc3cc(F)c(F)c(F)c3)cccc21", "note": "[Compound 45, Methyl (S)-(8-((3,4,5-trifluorophenyl)carbamoyl)chroman-4-yl)carbamate]", "EC50": 1.2},
      {"smiles": "COC(=O)N[C@H]1CCOc2c(C(=O)Nc3cc(F)cc(F)c3)cccc21", "note": "[Compound 46, Methyl (S)-(8-((3,5-difluorophenyl)carbamoyl)chroman-4-yl)carbamate]", "EC50": 5.8},
      {"smiles": "CNC(=O)N[C@H]1CCOc2c1ccc(F)c2C(=O)Nc1ccc(F)c(F)c1", "note": "[Compound 48, (S)-N-(3,4-difluorophenyl)-7-fluoro-4-(3-methylureido) chromane-8-carboxamide]", "EC50": 6.7},
      {"smiles": "COC(=O)N[C@H]1CCOc2c(C(=O)Nc3ccc(F)c(C)c3)cccc21", "note": "[Compound 50, Methyl (S)-(8-((4-fluoro-3-methylphenyl)carbamoyl)chroman-4-yl)carbamate]", "EC50": 0.65},
      {"smiles": "Cc1cccc(COC(=O)N[C@H]2CCOc3c(C(=O)Nc4ccc(F)c(Cl)c4)cccc32)n1", "note": "[Compound 52, (6-Methylpyridin-2-yl)methyl (S)-(8-((3-chloro-4-fluorophenyl)carbamoyl)chroman-4-yl)carbamate]", "EC50": 1.7}
    ]},
    {"test_system": "HBV rcDNA in HepDE19 cells", "assay": "HepDE19 assay with bDNA quantitation of HBV rcDNA", "type": "cell-based, hepatitis B virus (HBV)", "settings": "Hepatitis B virus, HepDE19, 168 h, read-out: DE-19 bDNA EC50, HepDE19 cells, 7 day incubation, rcDNA by Quantigene 2.0 bDNA assay", "description": "as §1, §2, §3, §4", "units": {"EC50": "µM"}, "values": [
      {"smiles": "COC(=O)N[C@H]1CCOc2c(C(=O)Nc3ccc(F)c(F)c3)ccc(F)c21", "note": "[Compound 38, methyl (S)-(8-((3,4-difluorophenyl)carbamoyl)-5-fluorochroman-4-yl)carbamate]", "EC50": 0.57},
      {"smiles": "CNC(=O)N[C@H]1CCOc2c(C(=O)Nc3ccc(F)c(F)c3)ccc(F)c21", "note": "[Compound 40, (S)—N-(3,4-difluorophenyl)-5-fluoro-4-(3-methylureido)chromane-8-carboxamide]", "EC50": 0.67},
      {"smiles": "COC(=O)N[C@H]1CCOc2c1ccc(F)c2C(=O)Nc1ccc(F)c(F)c1", "note": "[Compound 47, Methyl (8-((3,4-difluorophenyl)carbamoyl)-7-fluorochroman-4-yl)carbamate]", "EC50": 3.6},
      {"smiles": "COC(=O)N[C@H]1CCOc2c(C(=O)Nc3cccc(C(F)(F)F)c3)cccc21", "note": "[Compound 49]", "EC50": 11},
      {"smiles": "O=C(N[C@H]1CCOc2c(C(=O)Nc3ccc(F)c(Cl)c3)cccc21)OCc1ccccn1", "note": "[Compound 51, Pyridin-2-ylmethyl (S)-(8-((3-chloro-4-fluorophenyl)carbamoyl)chroman-4-yl)carbamate hydrochloride]", "EC50": 1.2}
    ]}
  ]
}
